Reference: patent US20210186954A1, “DRUG PRODUCTS FOR NASAL ADMINISTRATION AND USES THEREOF” (Summit Biosciences Inc., priority 2018, published 2021)
Read-outs that look alike come from different tables or passages of the source.

Legend:
[1] = Dissolution of chlorobutanol in water during preparation of F1(d); format: physicochemical
Experimental: Chlorobutanol dissolves into water very slowly at ambient temperatures. Therefore during the preparation of F1(d), USP-PW was heated. After 18 minutes, the solution was clear and all of the chlorobutanol was completely dissolved.

[2] = tested on: overdose events; conditions: 399 overdose events where naloxone was used; cited from earlier work
[3] = tested on: suspected opiate overdose; conditions: 2 mg IN, cited from earlier work
[4] = tested on: patients with suspected narcotic overdose; conditions: cited from earlier work
[5] = tested on: opiate addicts; conditions: nasal vs intravenous route; cited from earlier work
[6] = tested on: patients with suspected opioid overdose; conditions: cited from earlier work
[7] = 2 mg nasal solution dose; predicted by Wermeling; cited from earlier work
[8] = tested on: heroin overdose; conditions: IM naloxone; cited from earlier work
[9] = tested on: suspected opiate overdose; conditions: cited from earlier work

| Dissolution into water ([1]; ambient temperatures) | Time until solution clear and chlorobutanol completely dissolved ([1]; heated USP-PW, preparation of F1(d)) [min] | SMILES | overdose events reported reversed [2] [%] | responders responding to IN naloxone alone ([3]; 43 of 52 responders) [%] | median time from administration of IN naloxone to awakening [3] [min] | clinical response ([4]; IN group) [%] | clinical response ([4]; IV group) [%] | effectiveness of nasal administration [5] | mean interval from EMS arrival to respiratory rate ≥10 breaths/min ([6]; naloxone 0.4 mg IV) [min] | mean interval from EMS arrival to respiratory rate ≥10 breaths/min ([6]; naloxone 0.8 mg SQ) [min] | Cmax [7] [ng/mL] | tmax [7] | patients given supplementary naloxone [8] [%] | more than 10 spontaneous respirations per minute within 8 minutes ([9]; 2 mg IM) [%] | more than 10 spontaneous respirations per minute within 8 minutes ([9]; 2 mg IN, mucosal atomizer) [%] | needing rescue naloxone ([9]; IM group) [%] | needing rescue naloxone ([9]; IN group) [%] |
| --- | --- | --- | --- | --- | --- | --- | --- | --- | --- | --- | --- | --- | --- | --- | --- | --- | --- |
| very slowly | 18 | CC(C)(O)C(Cl)(Cl)Cl [Chlorobutanol, 1,1,1-trichloro-2-methylpropan-2-ol] | – | – | – | – | – | – | – | – | – | – | – | – | – | – | – |
| – | – | C=CCN1CC[C@]23c4c5ccc(O)c4O[C@H]2C(=O)CC[C@@]3(O)[C@H]1C5 [naloxone, 17-allyl-4,5a-epoxy-3,14-dihydroxymorphinan-6-one] | 89 | 83 | 3.0 | 66 | 56 | as effective as the intravenous route | 9.3 ± 4.2 | 9.6 ± 4.58 | 3 to 5 | approximately 20 minutes | 4.5 | 82 | 63 | 13 | 26 |
